Laboratory results as given in US20190328857A1, “CALR AND JAK2 VACCINE COMPOSITIONS” (IO Biotech ApS, priority 2016, published 2019).

Tests used:
Type in all cases: cell-based, human
PBMC from healthy donors [1] = assay: IFN-γ ELISPOT on PBMC from healthy donors
From the text: The ELISPOT assay is based on the detection of antigen induced release of cytokines—most often IFN-γ—by single T-cells upon triggering of its T-cell receptor. Reactivity of a single T-cell can be detected and quantified via binding of the respective cytokine on special nitrocellulose filter plates. When a T-cell recognizes the peptide epitope examined, the T-cell releases cytokines that are detected by a colorimetric reaction using an enzyme conjugated to a secondary cytokine specific antibody. The reaction product is visible as a spot. Ideally, each spot represents the cytokines secreted by a single activated cell. ELISPOTs were performed and analyzed as described previously (Munir et al., 2013). PBMCs were tested in different concentrations to ensure an optimal response. The distribution-free resampling method, described by Moodie et al., was used for statistical analyses and a p-value ≤0.05 was deemed a T-cell response (Moodie et al., 2010).
PBMC from healthy donors were analyzed by IFN-γ ELISPOTs as described in Example 1 for immune responses against the CARL-mutant epitopes CALRLong1 ([…]), CALRLong2 ([…]), CALRLong4 ([…]) and CALRLong5 ([…]). […]

PBMC from healthy donors [2] = assay: Intracellular cytokine staining of PBMC from healthy donors; conditions: PBMCs stimulated with peptide
From the text: Of note, all patients with a TNF-α response against CALRLong1 and CALRLong2 did also display an IFN-g response in ELISPOT (FIGS. 14-15).
After these experiments we concluded that the entire CALR-mutant C-terminus was indeed immunogenic. However, we speculated that there might be an part of the mutant sequence which is more immunogenic than the rest of the sequence. We searched for this “immunogenic hotspot” by dividing the entire 44 amino acid sequence into 36 nonamer epitopes. Using IFN-γ ELISPOT we investigated the spontaneous immune response against these 36 nonamer epitopes in 10 healthy donors. […] To elucidate the phenotype of the IFN-g releasing cells we analyzed five donors with a strong response against some of the nonamer epitopes and once again, most of the responses were CD4+ T-cell responses (FIG. 20).

[3] = system: CALRLong1-specific T-cells; assay: Intracellular cytokine staining of CALRLong1-specific T-cell culture stimulated with peptide
Method: Fresh PBMCs were first enriched for CD14+ cells using MACS CD14 MicroBeads (Miltenyi Biotech GmbH, Bergisch Gladbach, Germany). This was considered day 0. The resulting monocyte-depleted cell culture was termed peripheral blood lymphocytes (PBL). The enriched cells were cultured using CellGro (CellGenix GmbH, Freiburg, Germany), and stimulated with GM-CSF (1000 U/ml) and IL-4 (250 U/ml) (both PeproTech, Rocky Hill, N.J., USA). The next day, to generate fast dendritic cells (fastDC), we treated half of the enriched cells with a maturation cocktail comprising IFN-γ (1000 U/ml) (PeproTech, Rocky Hill, N.J., USA), PolyI:C (20 μg/ml) (Sigma-Aldrich, St. Louis, Mo., USA) and CALRLong1 peptide. PBL were cultured overnight in X-VIVO medium (Lonza Group Ltd., Basel, Switzerland) and then stimulated with half of the fastDC. The other half of the fastDC were frozen for later use.
The other half of the enriched cells were cultured until day 7, at which time these cells were treated with the same maturation cocktail as above, to generate mature dendritic cells (mDC). The next day, these mDC were used to stimulate PBLs. On day 9, IL-2 (120 U/mL) (Novartis, Basel, Switzerland) and IL-7 (40 U/ml) (PeproTech, Rocky Hill, N.J., USA) was added. On day 14, we thawed the fastDC that had been frozen on day 2, and used these cells to stimulate the PBL. On day 16 and day 24 we added, IL-2 and IL-7 in the concentrations mentioned above.
At day 38 of the T-cell culture, we stimulated the T-cells with CALRLong1 peptide for 4 h and next isolated IFN-γ secreting cells using the MACS IFN-γ secretion assay. The isolated cells were expanded using a rapid expansion protocol. The vast majority of cells that reacted to CALRLong1 peptide stimulation were CD4^+ T-cells; thus, we isolated CD4^+ T cells from the REP culture using the EasySep Human CD4 isolation Kit (StemCell Technologies, Inc., Vancouver, BC, Canada). The enriched CD4^+ T-cells were then cloned by limiting dilution, and growing T-cell clones were rapidly expanded using feeder cells and high dose IL-2 (6000 u/ml). T-cell receptor clonotyping of the cloned cells was performed by denaturing gradient gel electrophoresis as previously described.
Frozen T-cells were thawed one day prior to assaying, and in experiments examining CD107a expression, a CD107a-PE antibody was added to cells directly after addition of peptide or target cells. After one hour of stimulation, protein-transport inhibitor Brefeldin A (BD Biosciences, San Jose, Calif., USA) was added to the cells which were then stimulated for four h. Cells were stained with CD3-APC-H7, CD4-FITC, CD8-PerCP, IFN-γ-APC, TNF-α-BV421 and Fixable Viability Stain 510 (BD Biosciences, San Jose, Calif., USA), permeabilized and washed with Permeabilization Reagent/Diluent and fixation-permeabilization buffer (AH Diagnostics, Aarhus, Denmark). Cells were acquired with a FACS Canto II (BD Biosciences) and analyzed using FACSDiva software. All effector cell stimulations were run in triplicate wells if not otherwise specified.

[4] = of 21 (CALRLong1), 23 (CALRLong2), 9 (CALRLong4), 7 (CALRLong5) analyzed
[5] = after three stimulations with autologous dendritic cells

## RRMMRTKMRMRRMRRTRRKMRRKMSPARP (listed as Homo sapiens) [CALRLong1]
PBMC from healthy donors [1]
  immune responses of healthy donors in IFN-γ ELISPOT: strong immune responses
PBMC from healthy donors [1]; [4]
  healthy donors with a significant response in IFN-γ ELISPOT: 17
  healthy donors with a significant response in IFN-γ ELISPOT, percentage: 81%
PBMC from healthy donors [2]
  T-cell response of healthy donors, intracellular cytokine stain: CD4+ T-cell responses in several donors
PBMC from healthy donors [2]; listed as CALR Long1
  T-cell response of healthy donors, intracellular cytokine stain: CD4 T-cell response
[3]; ICS
  specificity of cloned CD4^+ T-cell culture for the peptide: 100%
[3]; after IFN-γ enrichment of the bulk culture
  CD4^+ T cells that responded against the peptide: ~40%
[3]; [5]
  response of CD4^+ T cells of the CALRLong1 bulk culture to peptide stimulation: responded
  response of CD8^+ T cells of the CALRLong1 culture to peptide stimulation: no response
[3]; stimulation with B-cells pulsed with peptide versus scrambled control
  CD107a expression on CD4^+ CALRLong1-specific T-cells: upregulated
[3]; stimulation with peptide
  CD4^+ T-cells in the bulk culture that upregulate CD107a: minor fraction
[3]; versus scrambled control peptide
  recognition of peptide-pulsed autologous B-cells by the specific T cells: widely recognized
